Data published in paper PMC9399681, “Structural insight into ASH1L PHD finger recognizing methylated histone H3K4 and promoting cell growth in prostate cancer” (Frontiers in Oncology, 2022).
Positions count from the first letter of the chain named.

Experiments:
Assay type in all cases: binding, mASH1L
ASH1L PHD finger [1] = biological target: T1, ASH1L PHD finger (Mus musculus, UniProt Q99MY8); assay: 1H,15N HSQC chemical shift perturbation; conditions: protein-to-peptide molar ratio 1:5; 298 K, 800 MHz, 1×PBS, pH 7.2, 100-μM ZnCl2
T1 construct: The mASH1L PHD domain (residue 2573–2624); MBP (cleaved yes); made in house; host or cells: Escherichia coli BL21 (DE3)
From the text: (§1) The mASH1L PHD domain (residue 2573–2624) was subcloned into a modified pMAL-c5X expression vector (New England Biolabs, Ipswich, MA, US), which contains an MBP tag and a TEV cleavage site. The site-directed mutagenesis of D2573A, I2575A, D2584E, E2585A, M2588A, Q2590E, and W2597A in the PHD domain was generated using the PfuTurbo DNA polymerase (Agilent Technologies) and Dpn I restriction enzyme (New England Biolabs). After the MBP tag was cut by TEV, these proteins were used in ITC and NMR experiments. The His-tagged PHD domain was subcloned into a pGEX-4T1 expression vector. The base vector has a GST tag and was engineered to include a TEV cleavage site before a 5′ 6×His sequence. […]
(§2) The bacteria were grown in Luria Broth (LB) media, supplemented with 100-μM ZnCl2 (all PHD constructs). […] The size and purity of the purified protein were monitored by SDS-PAGE. The PHD protein was concentrated with a filter tube (Millipore, Co. Cork, Ireland) and measured by UV absorbance at 280 nm.
(§3) The ^1H,^15N HSQC spectra of the ^15N-labeled PHD finger were collected at 298 K on a Bruker 800-MHz NMR spectrometer equipped with the z-gradient triple-resonance cryoprobe. The binding was analyzed through monitoring chemical shift perturbations observed in the two-dimensional ^1H,^15N HSQC spectra of PHD finger upon the addition of H3 (aa 1-15) peptides (H3K4me, H3K4me2, H3K4me3). […]

ASH1L PHD finger [2] = biological target: T1, ASH1L PHD finger; assay: ITC, ASH1L PHD finger with H3 peptides; conditions: 1×PBS, 100-μM ZnCl2, pH 7.2; for binding by ITC, in words: 25°C; for Kd: MicroCal iTC200, 25°C, 100 µM protein titrated with 3 mM peptide, H3 (1–15) peptides, H3 (2–16) K9me2, H3 (29–43) K36me2
Method: The bacteria were grown in Luria Broth (LB) media, supplemented with 100-μM ZnCl2 (all PHD constructs). All PHD domains were expressed in Escherichia coli BL21 (DE3) cells and induced overnight with 0.5-mM isopropyl-β-D-1-thiogalactopyranoside (IPTG) at 22°C. In addition, the cells were harvested by centrifugation at 4,000 g. The harvested cells with MBP-tagged PHD were resuspended in buffer containing 25-mM Tris, pH 7.2, 1-M NaCl, 20-mM β-mercaptoethanol, 100-μM ZnCl2, and the Complete EDTA-free Protease Inhibitor (Roche, Mannheim, Germany). Following lysis in a microfluidizer (MFIC), cell debris was removed by centrifugation at 12,000 g for 1 h and the supernatant was loaded on a 5-ml MBPTrap HP column (GE Healthcare). The binding protein was eluted with buffer containing 25-mM Tris, pH 7.2, 500-mM NaCl, 20-mM β-mercaptoethanol, 20-mM maltose, and 100-μM ZnCl2. After TEV cleavage, the PHD domain was supplemented with 20-mM DTT and further purified using a Superdex 75 column (GE Healthcare, Uppsala, Sweden) in a final buffer containing 1×PBS, pH 7.2, 100- μM ZnCl2. […] The PHD protein was concentrated with a filter tube (Millipore, Co. Cork, Ireland) and measured by UV absorbance at 280 nm.
ITC assays were carried out on the MicroCal iTC200 System (Malvern) at 25°C while stirring at 750 rpm in the ITC buffer of pH 7.2, consisting of 1×PBS, 100-μM ZnCl2. […] The PHD or tandem Bromo-PHD protein sample of 100 µM was placed in the cell and titrated with 3 mM of a different peptide solution in the ITC buffer using a set of 31 injections of 1.2 μl, following a single initial injection of 0.2 μl. In the ITC measurements of PHD mutant samples, the H3 (1–15) peptides were diluted to the final concentrations of 1.5 mM, titrated with a single initial injection of 0.4 μl and followed with a set of 19 injections of 2 μl. Cumulative enthalpy exchange plots were derived from the raw thermal changes, using one set of a site-fitting model.

ASH1L PHD finger [3] = biological target: T1, ASH1L PHD finger; assay: NMR titration, KD estimation; conditions: 100 μM PHD, peptide 25-2,000 μM, 298 K, 1×PBS, pH 7.2, 100-μM ZnCl2; single-site model; mean ± SEM; H3 (1–15) peptides
From the text: as §1, §2, §3

ASH1L PHD W2597A = biological target: T2, ASH1L PHD W2597A (Mus musculus, UniProt Q99MY8, W2597A); assay: ITC, ASH1L PHD mutant W2597A; conditions: 1.5 mM H3 (1–15) peptide, 25°C, pH 7.2, 1×PBS, 100-μM ZnCl2
T2 construct: The mASH1L PHD domain (residue 2573–2624); MBP (cleaved yes); made in house; host or cells: Escherichia coli BL21 (DE3)
T2 sequence (Q99MY8 2573-2624 W2597A): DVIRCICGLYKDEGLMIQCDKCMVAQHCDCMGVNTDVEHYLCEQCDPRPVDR
From the text: as §1, with “sequence. After the GST tag was cut, this protein was used for the peptide array assay. The His-tagged Bromo-PHD tandem domain (residue 2425–2627) of mASH1L was subcloned into a pNIC-Bsa4 expression vector, which contains a His tag.” for “sequence.”
as §2, with “nm. […]” for “nm.”

ASH1L PHD Q2590E = biological target: T3, ASH1L PHD Q2590E (Mus musculus, UniProt Q99MY8, Q2590E); assay: ITC, ASH1L PHD mutant Q2590E; conditions: 1.5 mM H3 (1–15) peptide, 25°C, pH 7.2, 1×PBS, 100-μM ZnCl2
T3 construct: The mASH1L PHD domain (residue 2573–2624); MBP (cleaved yes); made in house; host or cells: Escherichia coli BL21 (DE3)
T3 sequence (Q99MY8 2573-2624 Q2590E): T2 sequence (Q99MY8 2573-2624 W2597A) with Q18E, A25W
From the text: as §1, with “sequence. After the GST tag was cut, this protein was used for the peptide array assay. The His-tagged Bromo-PHD tandem domain (residue 2425–2627) of mASH1L was subcloned into a pNIC-Bsa4 expression vector, which contains a His tag.” for “sequence.”
as §2, with “nm. […]” for “nm.”

ASH1L PHD M2588A = biological target: T4, ASH1L PHD M2588A (Mus musculus, UniProt Q99MY8, M2588A); assay: ITC, ASH1L PHD mutant M2588A; conditions: 1.5 mM H3 (1–15) peptide, 25°C, pH 7.2, 1×PBS, 100-μM ZnCl2
T4 construct: The mASH1L PHD domain (residue 2573–2624); MBP (cleaved yes); made in house; host or cells: Escherichia coli BL21 (DE3)
T4 sequence (Q99MY8 2573-2624 M2588A): T2 sequence (Q99MY8 2573-2624 W2597A) with M16A, A25W
From the text: as §1, with “sequence. After the GST tag was cut, this protein was used for the peptide array assay. The His-tagged Bromo-PHD tandem domain (residue 2425–2627) of mASH1L was subcloned into a pNIC-Bsa4 expression vector, which contains a His tag.” for “sequence.”
as §2, with “nm. […]” for “nm.”

SMILES | HSQC chemical shift perturbation (ASH1L PHD finger [1]) | binding by ITC, in words (ASH1L PHD finger [2]) | Kd (ASH1L PHD finger [2]) | Kd (ASH1L PHD finger [3]) | Kd (ASH1L PHD W2597A) | Kd (ASH1L PHD Q2590E) | Kd (ASH1L PHD M2588A)
CC(C)[C@H](NC(=O)CNC(=O)CNC(=O)[C@@H](NC(=O)[C@H](C)NC(=O)[C@@H]1CCCN1C(=O)[C@H](C)N)[C@@H](C)O)C(=O)N[C@@H](CCCCN(C)C)C(=O)N[C@@H](CCCCN)C(=O)N1CCC[C@H]1C(=O)N[C@@H](Cc1c[nH]cn1)C(=O)N[C@@H](CCCNC(=N)N)C(=O)N[C@@H](Cc1ccc(O)cc1)C(=O)N[C@@H](CCCNC(=N)N)C(=O)N1CCC[C@H]1C(=O)O [H3K36me2] | binds with methylated H3K4 peptides but not H3K4me0, H3K9me2, or H3K36me2 peptides | weak binding affinity |  |  |  |  | 
C[C@H](NC(=O)[C@@H](NC(=O)[C@H](CCC(N)=O)NC(=O)[C@H](CCCCN)NC(=O)[C@@H](NC(=O)[C@@H](N)CCCNC(=N)N)[C@@H](C)O)[C@@H](C)O)C(=O)N[C@@H](CCCNC(=N)N)C(=O)N[C@@H](CCCCN(C)C)C(=O)N[C@@H](CO)C(=O)N[C@H](C(=O)NCC(=O)NCC(=O)N[C@@H](CCCCN)C(=O)N[C@@H](C)C(=O)N1CCC[C@H]1C(=O)O)[C@@H](C)O [H3K9me2] | binds with methylated H3K4 peptides but not H3K4me0, H3K9me2, or H3K36me2 peptides | weak binding affinity | > 500 µM |  |  |  | 
C[C@H](N)C(=O)N[C@@H](CCCNC(=N)N)C(=O)N[C@H](C(=O)N[C@@H](CCCC[N+](C)(C)C)C(=O)N[C@@H](CCC(N)=O)C(=O)N[C@H](C(=O)N[C@@H](C)C(=O)N[C@@H](CCCNC(=N)N)C(=O)N[C@@H](CCCCN)C(=O)N[C@@H](CO)C(=O)N[C@H](C(=O)NCC(=O)NCC(=O)N[C@@H](CCCCN)C(=O)N[C@@H](C)C(=O)O)[C@@H](C)O)[C@@H](C)O)[C@@H](C)O [H3K4me3] |  |  | 64 ± 4 µM | 106 ± 6 µM | > 200 µM | 33 ± 8 µM | > 200 µM
